tested on: wheat red rust pathogen (Puccinia recondita); assay: Test Example 1: wheat red rust disease control test (100 ppm); type: in vivo; settings: 100 ppm by mass sprayed on wheat young seedlings (Norin 61), inoculated after air-drying; blotch area ratio 12 days after inoculation
Description: 5 parts by, mass of an oxadiazole compound, 93.5 parts by mass of dimethylformamide, and 1.5 parts by mass of polyoxyethylene alkyl aryl ether were mixed and dissolved to obtain an emulsion (I) containing 5% by mass of the active ingradient.
The control value was calculated by the following formula. Control value (%)=100-{blotch area ratio in treated area/blotch area ratio in untreated area}×100
Water was added to the emulsion (I) such that the concentration of the oxadiazole compound became 100 ppm by mass, and then the oxadiazole compound was dissolved to obtain a pharmaceutical solution. Then, the pharmaceutical solution was sprayed on wheat young seedings (variety “Norin 61” at the first to second leaf stage) grown in nursery pots. After air-drying, the wheat young seedings sprayed with the pharmaceutical solution were inoculated with summer spores of wheat red rust pathogen (Puccinia recondita) by spraying the summer spores (in treated area).
As a control, wheat young seedings that were not sprayed with the pharmaceutical solution were inoculated in the same manner as mentioned above (in untreated area).
The wheat young seedings were placed under humid conditions at 20° C. for 1 day. […] After 12 days passed from inoculation, leaves of the wheat seedings were visually observed to measure the blotch area ratio, and the control value was calculated.

Row | Compound | Control value
1 | C[S+]([O-])CCOc1cc(=O)n(Cc2ccc(-c3noc(C(F)(F)F)n3)cc2)cn1 (centres unmarked) [Compound 2-75] | 2-75%

tested on: not given; assay: not given; settings: not given

Row | melting point [°C] | Compound
2 | 186 to 188 | CS(=O)(=O)c1cnn(-c2ccc(-c3noc(C(F)(F)F)n3)cc2)c(=O)c1 [Compound 1-18]
3 | 82 to 98 | O=C(C(=NOCC(F)(F)F)c1ccc(-c2noc(C(F)(F)F)n2)cc1)n1ncccc1=O [Compound 1-29]
4 | 97 to 100 | O=c1cccnn1-c1ccc(-c2noc(C(F)(F)F)n2)cc1 [Compound 1-5]
5 | 94 to 97 | O=c1cc2c(nn1Cc1ccc(-c3noc(C(F)(F)F)n3)cc1)CCC2 [Compound 1-31]
6 | 141 to 144 | O=c1c2ccccc2cnn1-c1ccc(-c2noc(C(F)(F)F)n2)cc1 [Compound 1-10]
7 | 143 to 148 | CON=CCOc1cc(=O)n(Cc2ccc(-c3noc(C(F)(F)F)n3)cc2)cn1 [Compound 1-38]
8 | 78 to 80 | O=c1cc(OCC=NOCc2ccccc2)ncn1Cc1ccc(-c2noc(C(F)(F)F)n2)cc1 [Compound 1-44]
9 | 192 to 195 | Cl.O=c1c2c(ncn1Cc1ccc(-c3noc(C(F)(F)F)n3)cc1)CNCC2 [Compound 1-47]
10 | 130 to 133 | O=c1ccccn1-c1ccc(-c2noc(C(F)(F)F)n2)cc1 [Compound 1-2]
11 | 145 to 147 | C[S+]([O-])c1cnn(-c2ccc(-c3noc(C(F)(F)F)n3)cc2)c(=O)c1 (centres unmarked) [Compound 1-17]
12 | 187 to 190 | Cc1nn(C)c2cnn(Cc3ccc(-c4noc(C(F)(F)F)n4)cc3)c(=O)c12 [Compound 1-22]
13 | 87 to 89 | O=c1c2c(cnn1Cc1ccc(-c3noc(C(F)(F)F)n3)cc1)OCCC2 [Compound 1-32]
14 | 105 to 107 | O=c1cccnn1CC1(c2ccc(-c3noc(C(F)(F)F)n3)cc2)OCCO1 [Compound 1-14]
15 | 111 to 115 | O=c1cc(OCC=NOCC(F)F)ncn1Cc1ccc(-c2noc(C(F)(F)F)n2)cc1 [Compound 1-45]
16 | 201 to 203 | CON=CCOc1ncn(Cc2ccc(-c3noc(C(F)(F)F)n3)cc2)c(=O)c1Cl [Compound 1-37]
17 | 94 to 96 | COCCON=CCOc1cc(=O)n(Cc2ccc(-c3noc(C(F)(F)F)n3)cc2)cn1 [Compound 1-41]
18 | 151 to 153 | CSc1cnn(-c2ccc(-c3noc(C(F)(F)F)n3)cc2)c(=O)c1 [Compound 1-16]
19 | 151 to 154 | Cc1ccn(-c2ccc(-c3noc(C(F)(F)F)n3)cc2)c(=O)c1 [Compound 1-8]
20 | 131 to 133 | N#CCON=CCOc1cc(=O)n(Cc2ccc(-c3noc(C(F)(F)F)n3)cc2)cn1 [Compound 1-46]

Row | melting point [°C] | Compound
21 | 235 to 237 | O=c1cc(N2CCOCC2)ncn1Cc1ccc(-c2noc(C(F)(F)F)n2)cc1 [Compound 1-52]
22 | 132 to 135 | Cc1nc2c(c(=O)n1Cc1ccc(-c3noc(C(F)(F)F)n3)cc1)CCCC2 [Compound 1-34]
23 | 158 to 160 | Cc1noc2cnn(Cc3ccc(-c4noc(C(F)(F)F)n4)cc3)c(=O)c12 [Compound 1-21]
24 | 163 to 166 | Cc1nn(C)c2nc(C)n(Cc3ccc(-c4noc(C(F)(F)F)n4)cc3)c(=O)c12 [Compound 1-30]
25 | 119 to 121 | O=c1cccnn1CC(O)c1ccc(-c2noc(C(F)(F)F)n2)cc1 (centres unmarked) [Compound 1-36]
26 | 178 to 180 | O=c1c2ccccc2ncn1Cc1ccc(-c2noc(C(F)(F)F)n2)cc1 [Compound 1-3]
27 | 157 to 160 | O=c1c2c(ncn1Cc1ccc(-c3noc(C(F)(F)F)n3)cc1)CCCC2 [Compound 1-26]
28 | 78 to 83 | Cc1ccc(=O)n(-c2ccc(-c3noc(C(F)(F)F)n3)cc2)n1 [Compound 1-9]
29 | 133 to 136 | O=c1c2ccccc2cnn1Cc1ccc(-c2noc(C(F)(F)F)n2)cc1 [Compound 1-11]
30 | 165 to 168 | O=c1c2c(ncn1Cc1ccc(-c3noc(C(F)(F)F)n3)cc1)CCC2 [Compound 1-25]
31 | 165 to 168 | O=c1cc2ccccc2cn1Cc1ccc(-c2noc(C(F)(F)F)n2)cc1 [Compound 1-6]
32 | 74 to 80 | O=c1cccnn1CCc1ccc(-c2noc(C(F)(F)F)n2)cc1 [Compound 1-33]
33 | 118 to 120 | Cc1nc2c(cnn2C)c(=O)n1Cc1ccc(-c2noc(C(F)(F)F)n2)cc1 [Compound 1-23]
34 | 139 to 142 | CCON=CCOc1cc(=O)n(Cc2ccc(-c3noc(C(F)(F)F)n3)cc2)cn1 [Compound 1-40]
35 | 103 to 106 | O=c1cc(OCC=NOC2CCCCO2)ncn1Cc1ccc(-c2noc(C(F)(F)F)n2)cc1 (centres unmarked) [Compound 1-42]
36 | 225 to 228 | Cn1ncc2c(=O)n(Cc3ccc(-c4noc(C(F)(F)F)n4)cc3)cnc21 [Compound 1-24]
37 | 233 to 235 | O=c1c2ccccc2ncn1-c1ccc(-c2noc(C(F)(F)F)n2)cc1 [Compound 1-4]
38 | 122 to 125 | O=C(Cn1ncccc1=O)c1ccc(-c2noc(C(F)(F)F)n2)cc1 [Compound 1-15]

Continued, molecule first:

Row | Compound | melting point [°C]
39 | O=C(Cc1ccc(-c2noc(C(F)(F)F)n2)cc1)N1CCC(=NOCC(F)(F)F)CC1 [Compound 10] | 84 to 86
40 | O=C(Cc1ccc(-c2noc(C(F)(F)F)n2)cc1)N1CCC(=NOC2CCCCO2)CC1 (centres unmarked) [Compound 15] | 104 to 106
41 | O=C(Cc1ccc(-c2noc(C(F)(F)F)n2)cc1)N1CC(=NOCC(F)(F)F)C1 [Compound 9] | 126 to 129
42 | O=C(Cc1ccc(-c2noc(C(F)(F)F)n2)cc1)N1CCC(=NO)CC1 [Compound 25] | 191 to 192
43 | CC(C)ON=C1CCN(C(=O)Cc2ccc(-c3noc(C(F)(F)F)n3)cc2)CC1 [Compound 22] | 96 to 100
44 | CCON=C1CN(C(=O)Cc2ccc(-c3noc(C(F)(F)F)n3)cc2)C1 [Compound 5] | 130 to 134
45 | CCON=C1CN(C(=O)C(=NOC)c2ccc(-c3noc(C(F)(F)F)n3)cc2)C1 [Compound 31] | 147 to 149
46 | CON=C1CCN(C(=O)Cc2ccc(-c3noc(C(F)(F)F)n3)cc2)CC1SC (centres unmarked) [Compound 33] | 120 to 121
47 | O=C(Cc1ccc(-c2noc(C(F)(F)F)n2)cc1)N1CC(=NOCC(F)F)C1 [Compound 41] | 140 to 141
48 | CCON=C1CCN(C(=O)Cc2cccc(-c3noc(C(F)(F)F)n3)c2)CC1 [Compound 11] | 83 to 86
49 | N#CCON=C1CN(C(=O)Cc2ccc(-c3noc(C(F)(F)F)n3)cc2)C1 [Compound 21] | 125 to 126
50 | CCON=C1CN(C(=O)C(SC)c2ccc(-c3noc(C(F)(F)F)n3)cc2)C1 (centres unmarked) [Compound 44] | 108 to 110
51 | CCON=C1CCN(C(=O)Cc2ccc(-c3noc(C(F)(F)F)n3)cc2)CC1SC (centres unmarked) [Compound 32] | 80 to 82
52 | COCCON=C1CN(C(=O)Cc2ccc(-c3noc(C(F)(F)F)n3)cc2)C1 [Compound 19] | 114 to 116
53 | CCON=C1CN(C(=O)C(=O)c2ccc(-c3noc(C(F)(F)F)n3)cc2)C1 [Compound 30] | 139 to 141
54 | CCSCON=C1CN(C(=O)Cc2ccc(-c3noc(C(F)(F)F)n3)cc2)C1 [Compound 12] | 73 to 75
55 | CON=C1CCN(C(=O)Cc2ccc(-c3noc(C(F)(F)F)n3)cc2)CC1 [Compound 8] | 73 to 76
56 | CON=C1CN(C(=O)Cc2ccc(-c3noc(C(F)(F)F)n3)cc2)C1 [Compound 7] | 172 to 176
57 | CON=C1CN(C(=O)c2ccc(-c3noc(C(F)(F)F)n3)cc2)C1 [Compound 2] | 162 to 165
58 | O=C(Cc1ccc(-c2noc(C(F)(F)F)n2)cc1)N1CC(=NOC2CCCCO2)C1 (centres unmarked) [Compound 16] | 82 to 83
59 | N#CCCON=C1CCN(C(=O)Cc2ccc(-c3noc(C(F)(F)F)n3)cc2)CC1 [Compound 26] | 71 to 72
60 | CCCON=C1CN(C(=O)C(SCC)c2ccc(-c3noc(C(F)(F)F)n3)cc2)C1 (centres unmarked) [Compound 45] | 83 to 85
61 | CCON=C1CCN(C(=O)Cc2ccc(-c3noc(C(F)(F)F)n3)cc2)CC1 [Compound 6] | 86 to 88
62 | O=C(Cc1ccc(-c2noc(C(F)(F)F)n2)cc1)N1CC(=NOCc2ccccc2)C1 [Compound 17] | 139 to 140
63 | CCON=C1CCN(C(=O)Cc2ccc(-c3noc(C(F)(F)F)n3)cc2)CC1S(C)(=O)=O (centres unmarked) [Compound 34] | 128 to 130
64 | N#CCON=C1CCN(C(=O)Cc2ccc(-c3noc(C(F)(F)F)n3)cc2)CC1 [Compound 20] | 126 to 128
65 | CSCCON=C1CCN(C(=O)Cc2ccc(-c3noc(C(F)(F)F)n3)cc2)CC1 [Compound 27] | 68 to 69
